The record followed here is PubChem BioAssay (NCI).

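96-well plates; 48 h exposure; 5 concentrations. Endpoints by linear interpolation between flanking doses. Not reached: highest tested concentration assigned. GI50: concentration for 50% inhibition of growth. At the TGI there is no net growth.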

Assay in all cases: NCI anticancer screen, dose series, 48 h
For assay [1], the system named is MDA-MB-435.
For assay [2], the system named is CAKI-1 renal.
Assay [3] relates to U251 CNS.
For assay [4], the system named is HOP-92 NSCLC.
For assay [5], the system named is LOX IMVI melanoma.
The subject of assay [6] is MCF7 breast.
For assay [7], the system named is SK-OV-3 ovarian.
The subject of assay [8] is HCC-2998 colon.
In assay [9] the test system is SK-MEL-5 melanoma.
Assay [10] concerns SF-539 CNS.
In assay [11] the test system is SF-268 CNS.
Assay [12] deals with OVCAR-8 ovarian.
In assay [13] the test system is SF-295 CNS.
Assay [14] has as its system HCT-116 colon.
The subject of assay [15] is SK-MEL-2 melanoma.
Assay [16] deals with SN12C renal.
The subject of assay [17] is RPMI-8226 leukemia.

Take `Cc1nc(-c2cc3c(ccc4ccccc43)oc2=O)cs1`: the TGI in assay [1] was greater than 100 µM; in [2], greater than 100 µM; in assay [3], greater than 100 µM; in assay [4], 89.5 µM; in assay [5], greater than 100 µM; in assay [6], greater than 100 µM. The TGI in [7], in [8], in [9], in [10], in assay [11] and in assay [12] was greater than 100 µM in each case. Besides, the TGI in [13], in assay [14], in [15], in assay [16] and in [17] was greater than 100 µM throughout.

Turning to `Cc1cc2cc3c(cc2c(-c2ccc([N+](=O)[O-])cc2)n1)OCO3`, the TGI in assay [1] is greater than 100 µM; in assay [2], greater than 100 µM; in assay [3] it was greater than 100 µM; in assay [4], 56.8 µM; in assay [5] it was greater than 100 µM; in [6], greater than 100 µM. The TGI is 71.2 µM in assay [7]; greater than 100 µM in assay [8]; greater than 100 µM in [9]; 72.4 µM in [10]; greater than 100 µM in assay [11]; greater than 100 µM in assay [12]. The TGI in [13], in assay [14], in assay [15], in assay [16] and in [17] was greater than 100 µM in each case.

`CCC/C=C/c1cc2c(cc1O)CC[C@@H]1[C@@H]2CC[C@]2(C)[C@@H](O)CC[C@@H]12`: the TGI was 32.1 µM in assay [1]; 41.8 µM in [2]; 30.6 µM in [3]; 40.8 µM in assay [4]; 29.3 µM in assay [5]; 52.6 µM in [6]. The TGI in assay [7] worked out at 63.2 µM; in assay [8] it was 38.8 µM; in assay [9], 30.2 µM; in assay [10], 35.7 µM; in assay [11], 42.6 µM; in assay [12] it was 64.2 µM. For the same molecule, the TGI in assay [13] was found to be 34.9 µM; in assay [14], 31.6 µM; in assay [15], 32.1 µM; in assay [16], 32.4 µM; in assay [17], 37.5 µM. Moreover, the figures for the GI50 in [10], in assay [14] and in [16] were 20.2 µM, 17.2 µM and 17.1 µM, respectively.

Regarding `Cc1cc2c(cc1C(=O)CCC(=O)O)CC1(C2)Cc2cc(C)c(C(=O)CCC(=O)O)cc2C1`, the TGI in assay [1], in assay [2], in assay [3], in [4], in assay [5] and in assay [6] was greater than 100 µM throughout. Moreover, the TGI in assay [7], in assay [8], in assay [9], in assay [10], in [11] and in [12] was greater than 100 µM in each case. Besides, the TGI in assay [13], in [14], in assay [15], in assay [16] and in assay [17] was greater than 100 µM in each case.

Turning to `c1nc(N2CC2)c2cnn(C3CCCCO3)c2n1` (centres undefined), the TGI in [1], in assay [2], in assay [3], in assay [4], in assay [5] and in [6] was greater than 100 µM in each case. For the same molecule, the TGI in [7], in [8], in assay [9], in assay [10], in assay [11] and in [12] was greater than 100 µM throughout. Also, the TGI in [13], in assay [14], in assay [15], in assay [16] and in assay [17] was greater than 100 µM in each case.

Turning to `O=c1cc(N2CCNCC2)nc2ccccn12`, the TGI in assay [1], in assay [2], in assay [3], in assay [4], in assay [5] and in assay [6] was greater than 100 µM throughout. The TGI in [7], in assay [8], in [9], in assay [10], in assay [11] and in [12] was greater than 100 µM each time. The TGI in assay [13], in assay [14], in assay [15], in assay [16] and in assay [17] was greater than 100 µM throughout.

Consider `Nc1nc(I)nc2c1ncn2C1OC(COS(N)(=O)=O)C(O)C1O` (centres undefined), for which the TGI in assay [1] came to 0.0138 µM; in assay [2] it was 0.129 µM; in [3] it was 0.0243 µM; in assay [4] it was 0.0464 µM; in [5] it was 0.0251 µM; in assay [6], 0.207 µM. Further, the TGI is 0.0458 µM in [7]; 0.0311 µM in assay [8]; less than 0.0113 µM in assay [9]; less than 0.014 µM in assay [10]; 0.018 µM in assay [11]; less than 0.0106 µM in [12]. The TGI came out at 0.168 µM in assay [13]; 0.0534 µM in [14]; 0.0107 µM in assay [15]; 0.032 µM in assay [16]; 0.172 µM in [17].

As to `CCCC/C=C/C/C=C/CCCCCCCCC(=O)OCC1CCCN2CCCCC12` (centres undefined), the TGI in assay [1], in [2], in [3], in assay [4], in [5] and in assay [6] was greater than 100 µM throughout. For the same molecule, the TGI in assay [7], in assay [8], in assay [9], in [10], in assay [11] and in assay [12] was greater than 100 µM in each case. Also, the TGI in assay [13], in assay [14], in assay [15], in assay [16] and in [17] was greater than 100 µM each time.
